Results taken from US9079853B2, “Isatin compounds, compositions and methods for treatment of degenerative diseases and disorders” (MUSC FOUNDATION FOR RESEARCH DEVELOPMENT, priority 2013, dated 2015).

Tests used:
661W or C6 cells [1] = assay: MTT assay, protection against calcium-ionophore A23187; assay type: cell-based; conditions: 1 μM A23187, 24 h
Experimental: The compound 3-(4,5-Dimethylthiazol-2-yl)-2,5-diphenyltetrazolium bromide (MTT) is a tetrazolium ion that is reduced to a blue formazan dye via several families of NAD(P)H-dependent oxidoreductases. Formation of the formazan dye from MTT or other related tetrazolium dyes are commonly used as a viability assay even though, in fact, the assay is a metabolic capacity assay.
In this assay, 661W or C6 cells were maintained in DMEM supplemented with 10% FBS. 100 μL of 70,000 cells/mL cells were seeded into each well of 96 well plates using DMEM supplemented with 5% FBS. Cells were then allowed to grow to confluency for 48 hours. The compounds of the invention were added in 2 μL media and calcium-ionophore A23187 was then added in 1 μL for a final concentration of 1 μM and after 24 h, 20 μL of […] MTT were added to each well and the cells were incubated for another 4 h after which 100 μL of 1% SDS in 0.01M aqueous HCl were added to each well and the plates were incubated overnight. Absorbance was measured at […] (background correction). The 1 μM ionophore A23187 caused about 50% loss in MTT signal at 24 h. Protection was calculated as the increase in absorbance of treatment groups normalized to the vehicle control.

661W or C6 cells [2] = assay: XF FCCP-uncoupled oxygen consumption rate assay (IBMX challenge); assay type: cell-based; conditions: 1 h pretreatment, 600 μM IBMX, 24 h, read-out: XF FCCP OCR (% Ctrl); for activity at 0.01 µM: compound 10 nM; for activity at 0.001 µM: compound 1 nM; for activity at 0.0008 µM: compound 800 pM;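 on all read-outs here: values normalized to the vehicle control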
Experimental: The XF FCCP-uncoupled oxygen consumption rate assay assesses mitochondrial capacity by measuring cellular respiration. It was shown that the maximum FCCP-uncoupled oxygen consumption rate (OCR) was a good estimate of maximal mitochondrial capacity (Beeson 2010) and that IBMX treatment of 661W or C6 cells for 24 h caused a loss in maximal uncoupled OCR (Perron 2013). Thus, cells were pretreated with the exemplified compounds for 1 h, added 600 μM IBMX and then measured the uncoupled rate after 24 h. In brief, the OCR measurements were performed using a Seahorse Bioscience XF instrument (Seahorse Bioscience, Billerica, Md.), as previously published (Perron 2013). O2 leakage through the plastic sides and bottom of the plate was accounted for using the AKOS algorithm in the XF software package. Cells were plated on 96- or 24-well custom plates designed for use in the XF and grown to confluency in DMEM+5% FBS (48 h). The medium was then replaced with DMEM+1% FBS for 24 h, along with any treatments.

Balb/c mice = assay: Light model assay (constant light damage, eyedrops); assay type: in vivo, mouse; conditions: 1 mM eyedrops once per day; continuous light 7 days; rows of photoreceptors
Source text: The light model assay is generally accepted as a model of age related macular degeneration (AMD). […] In particular, oxidative damage has been detected by immunohistochemistry, detecting the presence of oxidized and tyrosine-phosphorylated proteins as well as the upregulation of endogenous antioxidants such as thioredoxin and glutathione peroxidase. […] Additional indirect evidence for the involvement of oxidative stress in photoreceptor degeneration has been provided by treatment of photodamaged retinas with antioxidants such as dimethylthiourea, or the treatment of N-methyl-N-nitrosourea (MNU)-challenged rats with the antioxidant DHA.
The light model assay was used to further test the therapeutic potential of the compounds of the invention. Photoreceptors from albino animals are very sensitive to constant light, lacking the RPE pigment to protect them. Thus, Balb/c mice were exposed to continuous light for 7 days, which caused loss of about 50% of the photoreceptor cells as measured via histology. To test the potential therapeutic efficacy, eyedrops were formulated in 0.1% Bij 35 in […], applied once or twice daily throughout the period of light exposure, and their effect assessed on the light-induced degeneration of photoreceptor cells morphologically and electrophysiologically, 10 days after the onset of the CL exposure.

SMILES | MTT, % protection (661W or C6 cells [1]; compound 1 nM) | activity at 0.001 µM (661W or C6 cells [2]) | also measured
CCCN1C(=O)C(O)(CC(=O)c2ccc(OC)nc2OC)c2cc(Cl)ccc21 (stereo not shown) [Example 22, 5-chloro-3-(2-(2,6-dimethoxypyridin-3-yl)-2-oxoethyl)-3-hydroxy-1-propylindolin-2-one] |  |  | MTT, % protection (661W or C6 cells [1]; compound 10 nM): 71.8%,; activity at 0.01 µM (661W or C6 cells [2]): 76%
COc1ccc(CC2(OC(=O)c3ccccc3)C(=O)N(CCCN3CCOCC3)c3ccc(Cl)cc32)c(O)c1 (stereo not shown) [Example 56, 5-chloro-3-(2-hydroxy-4-methoxybenzyl)-1-(3-morpholinopropyl)-2-oxoindolin-3-yl benzoate] | 85.3%, | 68% | 
CCN1C(=O)C(Cc2cc(OC)cc(OC)c2)(OC(=O)c2ccccc2)c2cc(C)ccc21 (stereo not shown) [Example 38, 3-(3,5-dimethoxybenzyl)-1-ethyl-5-methyl-2-oxoindolin-3-yl benzoate] | 84.1%, | 78% | 
CCN1C(=O)C(O)(Cc2ccc(OC)cc2)c2cc(C)ccc21 (stereo not shown) [Example 51, 1-ethyl-3-hydroxy-3-(4-methoxybenzyl)-5-methylindolin-2-one] | 62.2%, | 65% | 
C#CCCCN1C(=O)C(O)(CC(=O)c2c[nH]c3ccccc23)c2cc(C)ccc21 (stereo not shown) [Example 13, 3-(2-(1H-indol-3-yl)-2-oxoethyl)-3-hydroxy-5-methyl-1-(pent-4-yn-1-yl)indolin-2-one] |  |  | MTT, % protection (661W or C6 cells [1]; compound 100 nM): 79.4%,; LD Protection (# of rows) (Balb/c mice): 5.44 # of rows
COc1cccnc1CC1(O)C(=O)N(CCc2ccccc2)c2ccc(Cl)cc21 (stereo not shown) [Example 3, 5-chloro-3-hydroxy-3-((3-methoxypyridin-2-yl)methyl)-1-phenethylindolin-2-one] | 74.5%, | 74.5% | 
COc1ccc(CC2(OC(=O)c3ccccc3)C(=O)N(CCCC(C)C)c3ccc(C)cc32)c(O)c1 (stereo not shown) [Example 53, 3-(2-hydroxy-4-methoxybenzyl)-5-methyl-1-(4-methylpentyl)-2-oxoindolin-3-yl benzoate] | 100%, | 91% | 
COc1ccc(O)c(CC2(OC(=O)c3ccccc3)C(=O)N(CCc3ccccc3)c3ccc(Cl)cc32)c1 (stereo not shown) [Example 61, 5-chloro-3-(2-hydroxy-5-methoxybenzyl)-2-oxo-1-phenethylindolin-3-yl benzoate] | 87.1%, | 67% | 
CCN1C(=O)C(Cc2cccc(OC)c2)(OC(=O)c2ccccc2)c2cc(Cl)ccc21 (stereo not shown) [Example 40, 5-chloro-1-ethyl-3-(3-methoxybenzyl)-2-oxoindolin-3-yl benzoate] | 81.1%, | 66% | 
COc1cc(CC2(OC(=O)c3ccccc3)C(=O)N(CC(C)C)c3ccc(Cl)cc32)cc(OC)c1OC (stereo not shown) [Example 35, 5-chloro-1-isobutyl-2-oxo-3-(3,4,5-trimethoxybenzyl)indolin-3-yl benzoate] |  |  | MTT, % protection (661W or C6 cells [1]; compound 800 pM): 113.5%,; activity at 0.0008 µM (661W or C6 cells [2]): 55%
CCN1C(=O)C(Cc2cc(OC)ccc2O)(OC(=O)c2ccccc2)c2cc(Cl)ccc21 (stereo not shown) [Example 62, 5-chloro-1-ethyl-3-(2-hydroxy-5-methoxybenzyl)-2-oxoindolin-3-yl benzoate] |  |  | MTT, % protection (661W or C6 cells [1]; compound 800 pM): 86.4%,; activity at 0.0008 µM (661W or C6 cells [2]): 70%
CCCN1C(=O)C(O)(Cc2ccc(OC)cn2)c2cc(C)ccc21 (stereo not shown) [Example 6, 3-hydroxy-3-((5-methoxypyridin-2-yl)methyl)-5-methyl-1-propylindolin-2-one] |  |  | MTT, % protection (661W or C6 cells [1]; compound 500 pM): 68.8%,; activity at 0.0008 µM (661W or C6 cells [2]): 67%
CCCCN1C(=O)C(O)(Cc2cccc(OC)c2)c2cc(Cl)ccc21 (stereo not shown) [Example 42, 1-butyl-5-chloro-3-hydroxy-3-(3-methoxybenzyl)indolin-2-one] | 69.8%, | 71% | 
O=C1N(CCN2CCCCC2)c2ccc(Cl)cc2C1(O)Cc1ccccn1 (stereo not shown) [Example 4, 5-chloro-3-hydroxy-1-(2-(piperidin-1-yl)ethyl)-3-(pyridin-2-ylmethyl)indolin-2-one] |  | 69% | MTT, % protection (661W or C6 cells [1]; compound 800 pM): 61.5%,
CCCN1C(=O)C(O)(CC(=O)c2ccc(OC)nc2OC)c2cc(C)ccc21 (stereo not shown) [Example 25, 3-(2-(2,6-dimethoxypyridin-3-yl)-2-oxoethyl)-3-hydroxy-5-methyl-1-propylindolin-2-one] | 73.8%, | 57% | 
CCCCN1C(=O)C(Cc2c[nH]c3ccccc23)(OC(=O)c2ccccc2)c2ccccc21 (stereo not shown) [Example 65, 3-((1H-indol-3-yl)methyl)-1-butyl-2-oxoindolin-3-yl benzoate] |  |  | MTT, % protection (661W or C6 cells [1]; compound 500 pM): 135%,; activity at 0.0005 µM (661W or C6 cells [2]; compound 500 pM): 61%
CCCCN1C(=O)C(O)(Cc2cc(OC)cc(OC)c2)c2cc(Cl)ccc21 (stereo not shown) [Example 41, 1-butyl-5-chloro-3-(3,5-dimethoxybenzyl)-3-hydroxyindolin-2-one] |  | 79% | MTT, % protection (661W or C6 cells [1]; compound 1 μM): 66.8%,
CCCN1C(=O)C(O)(CC(=O)c2c[nH]c3ccccc23)c2cc(C)ccc21 (stereo not shown) [Example 24, 3-(2-(1H-indol-3-yl)-2-oxoethyl)-3-hydroxy-5-methyl-1-propylindolin-2-one] | 69%, |  | activity at 0.01 µM (661W or C6 cells [2]): 59%
CCCN1C(=O)C(O)(Cc2cccc(OC)c2)c2cc(C)ccc21 (stereo not shown) [Example 43, 3-hydroxy-3-(3-methoxybenzyl)-5-methyl-1-propylindolin-2-one] | 64.8%, | 69% | 
COc1cc(CC2(O)C(=O)N(CC(C)C)c3ccc(C)cc32)cc(OC)c1OC (stereo not shown) [Example 37, 3-hydroxy-1-isobutyl-5-methyl-3-(3,4,5-trimethoxybenzyl)indolin-2-one] |  | 65% | MTT, % protection (661W or C6 cells [1]; compound 800 pM): 68.4%,
COc1cc(CC2(OC(=O)c3ccccc3)C(=O)N(CCc3ccccc3)c3ccc(C)cc32)cc(OC)c1 (stereo not shown) [Example 39, 3-(3,5-dimethoxybenzyl)-5-methyl-2-oxo-1-phenethylindolin-3-yl benzoate] | 83.2%, | 66% | 
CCCN1C(=O)C(O)(CC(=O)c2cccc(OC)n2)c2cc(Cl)cc(Cl)c21 (stereo not shown) [Example 30, 5,7-dichloro-3-hydroxy-3-(2-(6-methoxypyridin-2-yl)-2-oxoethyl)-1-propylindolin-2-one] | 69%, | 59% | 
CCCN1C(=O)C(O)(CC(=O)c2cccc(OC)n2)c2cc(C)ccc21 (stereo not shown) [Example 26, 3-hydroxy-3-(2-(6-methoxypyridin-2-yl)-2-oxoethyl)-5-methyl-1-propylindolin-2-one] |  | 62% | MTT, % protection (661W or C6 cells [1]; compound 10 nM): 83.8%,
CCCN1C(=O)C(O)(CC(=O)c2ccccn2)c2cc(Cl)ccc21 (stereo not shown) [Example 23, 5-chloro-3-hydroxy-3-(2-oxo-2-(pyridin-2-yl)ethyl)-1-propylindolin-2-one] |  |  | MTT, % protection (661W or C6 cells [1]; compound 10 nM): 73%,; activity at 0.01 µM (661W or C6 cells [2]): 73%
COc1cc(CC2(O)C(=O)N(CC(C)C)c3ccccc32)cc(OC)c1OC (stereo not shown) [Example 48, 3-hydroxy-1-isobutyl-3-(3,4,5-trimethoxybenzyl)indolin-2-one] | 91%, | 85% | 
CCCN1C(=O)C(Cc2c[nH]c3ccccc23)(OC(=O)c2ccccc2)c2cc(Cl)ccc21 (stereo not shown) [Example 63, 3-((1H-indol-3-yl)methyl)-5-chloro-2-oxo-1-propylindolin-3-yl benzoate] | 120%, | 78% | 
